In ChEMBL document CHEMBL5096163, “Current status in the discovery of dual BET/HDAC inhibitors” (Bioorg Med Chem Lett, 2021):

Key:
Histone deacetylase 3 = Histone deacetylase 3 (Homo sapiens, UniProt O15379); assay: Inhibition of human recombinant HDAC3 using Boc-Lys(Ac)-AMC fluorogenic substrate measured after 60 mins by fluorescence assay
[1] = target: Histone deacetylase 1 (Homo sapiens) (UniProt Q13547); assay: Inhibition of HDAC1 (unknown origin) at 10 uM relative to control
U-937 = assay: Cytotoxicity against human U-937 cells assessed as reduction in cell viability at 3 uM incubated for 24 hrs by MTT assay relative to control; assay type: functional

Sequence of Histone deacetylase 3 (O15379 whole entry): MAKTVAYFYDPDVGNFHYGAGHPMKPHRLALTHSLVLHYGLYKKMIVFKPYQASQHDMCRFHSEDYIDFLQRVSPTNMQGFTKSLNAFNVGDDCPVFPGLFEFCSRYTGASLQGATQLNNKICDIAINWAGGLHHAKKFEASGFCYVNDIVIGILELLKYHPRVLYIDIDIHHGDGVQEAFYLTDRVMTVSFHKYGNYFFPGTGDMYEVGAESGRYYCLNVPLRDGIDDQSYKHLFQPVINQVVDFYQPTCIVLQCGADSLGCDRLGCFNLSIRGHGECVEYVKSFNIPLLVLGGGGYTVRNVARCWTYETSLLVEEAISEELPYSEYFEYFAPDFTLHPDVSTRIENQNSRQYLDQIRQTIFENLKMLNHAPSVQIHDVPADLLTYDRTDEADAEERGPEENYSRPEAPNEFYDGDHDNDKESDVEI
Sequence of Histone deacetylase 1 (Homo sapiens) (Q13547 whole entry): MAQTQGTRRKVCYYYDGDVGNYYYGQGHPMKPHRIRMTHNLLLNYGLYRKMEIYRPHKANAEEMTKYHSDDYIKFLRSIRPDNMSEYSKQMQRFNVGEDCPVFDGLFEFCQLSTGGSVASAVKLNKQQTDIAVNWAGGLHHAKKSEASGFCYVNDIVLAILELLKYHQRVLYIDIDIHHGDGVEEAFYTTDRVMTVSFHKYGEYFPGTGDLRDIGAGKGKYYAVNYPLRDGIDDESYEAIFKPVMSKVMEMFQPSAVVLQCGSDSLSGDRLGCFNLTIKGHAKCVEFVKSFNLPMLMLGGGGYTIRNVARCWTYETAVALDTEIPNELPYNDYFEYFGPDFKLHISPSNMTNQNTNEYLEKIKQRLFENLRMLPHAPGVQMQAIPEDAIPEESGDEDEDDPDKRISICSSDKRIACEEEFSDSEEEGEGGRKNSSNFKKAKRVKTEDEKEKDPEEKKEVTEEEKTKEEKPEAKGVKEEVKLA

Row | IC50 (Histone deacetylase 3) [nM] | inhibition [1] [%] | Structure (SMILES) | Activity (U-937) [%]
1 | 5 | 88 | Cc1noc(C)c1-c1cnc2c(c1)c(Cc1ccc(F)cc1)cn2CCCCCCC(=O)NO | –
2 | 60 | – | O=C(CCCCCCn1cc(Cc2ccccc2)c2cccnc21)NO | –
3 | – | – | Cc1sc2c(c1C)C(c1ccc(Cl)cc1)=N[C@@H](CC(=O)NCCCC(=O)Nc1ccccc1N)c1nnc(C)n1-2 | 16.12
4 | 5 | – | COC(c1c(F)cccc1Cl)c1c[nH]c2ncc(-c3c(C)noc3C)cc12 (stereo not given) | –
